From patent US10046060B2, “Co-administration of an agent linked to an internalization peptide with an anti-inflammatory” (NoNO Inc., priority 2007, dated 2018)
Ends that are not written are not given here.

Test system: humans
Test: Safety, Tolerability and Pharmacokinetic Study in humans: blood histamine
Format: in vivo, human
Details: for Average histamine level of subjects with >10 nmol/L / Maximum histamine level: 3.75 mg/kg
Description: We carried out a Safety, Tolerability and Pharmacokinetic Study of Tat-NR2B9c in humans. Subjects were either normal, healthy, non-smoking males or post-menopausal or surgically sterile female subjects with a minimum age of 18 years. The subjects were either administered Tat-NR2B9c, Lot #: 124-134-001B, or were given placebo (Phosphate Buffered Saline), Lot #: 124-134-001A, administered as an intravenous infusion (10±1 minutes). Four subjects were dosed in each of Cohorts 1 to 3, and 10 subjects were dosed in each of Cohorts 4 to 8. All 62 subjects completed the study. Treatment periods for each cohort were as follows: Cohort 1: Sep. 14, 2006; Cohort 2: Sep. 26, 2006; Cohort 3: Oct. 6, 2006; Cohort 4: Oct. 20, 2006; Cohort 5: Nov. 6, 2006; Cohort 6: Dec. 4, 2006; Cohort 7: Dec. 17, 2006; Cohort 8: Feb. 25, 2007.
During the study period, 11 blood samples were collected for pharmacokinetic analysis from each subject at the following timepoints: 0.00 (pre-dose), 0.08 (5 minutes), 0.17 to 0.25 (10 to 15 minutes, precisely at the end of each individual drug infusion), 0.33 (20 minutes), 0.50, 0.75, 1.00, 2.00, 6.00, 12.00, and 24.00 hours post-dose. In addition, 8 blood samples were collected for histamine analysis from each subject at the following timepoints: 0.00 (pre-dose), and at 0.08 (5 minutes), 0.17 (10 minutes), 0.25, 0.50, 1.00, 2.00, and 24.00 hours post-dose.

[1] = 10 minutes after start of administration
[2] = 15 minutes after start of administration

With YGRKKRRQRRRKLSSIESDV [Tat-NR2B9c] as the sequence, how does the “Average histamine level of subjects with >10 nmol/L” value [1] read?
The value was 24.3 nmol/L.

And the Maximum histamine level [1]?
The Maximum histamine level was 39.8 nmol/L.

And the “Average histamine level of subjects with >10 nmol/L” value [2]?
The value was 15.3 nmol/L.

What about the Maximum histamine level [2] of the same sequence?
Its Maximum histamine level is 20.3 nmol/L.

What about the “Number of Subjects with Histamine levels >10 nmol/L” value (“Number of Subjects” for short) (NA-1 0.02 mg/kg (n = 2), Day 1, 0.00 hr) of the same sequence?
Its value is 0.

And the “Number of Subjects” value (NA-1 0.02 mg/kg (n = 2), Day 1, 0.08 hr)?
Its value is 0.

And the “Number of Subjects” value (NA-1 0.02 mg/kg (n = 2), Day 1, 0.17 hr)?
Its value is 0.

What about the “Number of Subjects” value (NA-1 0.02 mg/kg (n = 2), Day 1, 0.25 hr) of the same sequence?
The value was 0.

What about the “Number of Subjects” value (NA-1 0.02 mg/kg (n = 2), Day 1, 0.50 hr) of the same sequence?
The value was 0.

And the “Number of Subjects” value (NA-1 0.02 mg/kg (n = 2), Day 1, 1.00 hr)?
The value was 0.

And the “Number of Subjects” value (NA-1 0.02 mg/kg (n = 2), Day 1, 2.00 hr)?
Its value is 0.

What about the “Number of Subjects” value (NA-1 0.02 mg/kg (n = 2), Day 1, 24.00 hr) of the same sequence?
Its value is 0.

What about the “Number of Subjects” value (NA-1 0.02 mg/kg (n = 2), Day 7) of the same sequence?
Its value is 0.

And the “Number of Subjects” value (NA-1 0.02 mg/kg (n = 2), Day 14)?
The value was 0.

What about the “Number of Subjects” value (NA-1 0.02 mg/kg (n = 2), Day 28 End-of-study) of the same sequence?
Its value is 0.

And the “Number of Subjects” value (NA-1 0.02 mg/kg (n = 2), Screening)?
The value was 0.

What about the “Number of Subjects” value (NA-1 0.08 mg/kg (n = 2), Day 1, 0.00 hr) of the same sequence?
The value was 0.

What about the “Number of Subjects” value (NA-1 0.08 mg/kg (n = 2), Day 1, 0.08 hr) of the same sequence?
The value was 0.

And the “Number of Subjects” value (NA-1 0.08 mg/kg (n = 2), Day 1, 0.17 hr)?
Its value is 0.

What about the “Number of Subjects” value (NA-1 0.08 mg/kg (n = 2), Day 1, 0.25 hr) of the same sequence?
The value was 0.

What about the “Number of Subjects” value (NA-1 0.08 mg/kg (n = 2), Day 1, 0.50 hr) of the same sequence?
Its value is 0.

What about the “Number of Subjects” value (NA-1 0.08 mg/kg (n = 2), Day 1, 1.00 hr) of the same sequence?
The value was 0.

And the “Number of Subjects” value (NA-1 0.08 mg/kg (n = 2), Day 1, 2.00 hr)?
Its value is 0.

And the “Number of Subjects” value (NA-1 0.08 mg/kg (n = 2), Day 1, 24.00 hr)?
The value was 0.

What about the “Number of Subjects” value (NA-1 0.08 mg/kg (n = 2), Day 7) of the same sequence?
Its value is 0.

And the “Number of Subjects” value (NA-1 0.08 mg/kg (n = 2), Day 14)?
The value was 0.

What about the “Number of Subjects” value (NA-1 0.08 mg/kg (n = 2), Day 28 End-of-study) of the same sequence?
Its value is 0.

And the “Number of Subjects” value (NA-1 0.08 mg/kg (n = 2), Screening)?
Its value is 0.

And the “Number of Subjects” value (NA-1 0.20 mg/kg (n = 2), Day 1, 0.00 hr)?
The value was 0.

What about the “Number of Subjects” value (NA-1 0.20 mg/kg (n = 2), Day 1, 0.08 hr) of the same sequence?
Its value is 0.

And the “Number of Subjects” value (NA-1 0.20 mg/kg (n = 2), Day 1, 0.17 hr)?
Its value is 0.

What about the “Number of Subjects” value (NA-1 0.20 mg/kg (n = 2), Day 1, 0.25 hr) of the same sequence?
The value was 0.

What about the “Number of Subjects” value (NA-1 0.20 mg/kg (n = 2), Day 1, 0.50 hr) of the same sequence?
Its value is 0.

What about the “Number of Subjects” value (NA-1 0.20 mg/kg (n = 2), Day 1, 1.00 hr) of the same sequence?
The value was 0.

And the “Number of Subjects” value (NA-1 0.20 mg/kg (n = 2), Day 1, 2.00 hr)?
Its value is 0.

What about the “Number of Subjects” value (NA-1 0.20 mg/kg (n = 2), Day 1, 24.00 hr) of the same sequence?
Its value is 0.

And the “Number of Subjects” value (NA-1 0.20 mg/kg (n = 2), Day 7)?
The value was 0.

What about the “Number of Subjects” value (NA-1 0.20 mg/kg (n = 2), Day 14) of the same sequence?
The value was 0.

And the “Number of Subjects” value (NA-1 0.20 mg/kg (n = 2), Day 28 End-of-study)?
The value was 0.

What about the “Number of Subjects” value (NA-1 0.20 mg/kg (n = 2), Screening) of the same sequence?
The value was 0.

And the “Number of Subjects” value (NA-1 0.375 mg/kg (n = 8), Day 1, 0.00 hr)?
Its value is 0.

What about the “Number of Subjects” value (NA-1 0.375 mg/kg (n = 8), Day 1, 0.08 hr) of the same sequence?
The value was 0.

And the “Number of Subjects” value (NA-1 0.375 mg/kg (n = 8), Day 1, 0.17 hr)?
Its value is 0.

And the “Number of Subjects” value (NA-1 0.375 mg/kg (n = 8), Day 1, 0.25 hr)?
Its value is 0.

And the “Number of Subjects” value (NA-1 0.375 mg/kg (n = 8), Day 1, 0.50 hr)?
Its value is 0.

And the “Number of Subjects” value (NA-1 0.375 mg/kg (n = 8), Day 1, 1.00 hr)?
The value was 0.

What about the “Number of Subjects” value (NA-1 0.375 mg/kg (n = 8), Day 1, 2.00 hr) of the same sequence?
Its value is 0.

And the “Number of Subjects” value (NA-1 0.375 mg/kg (n = 8), Day 1, 24.00 hr)?
Its value is 0.

And the “Number of Subjects” value (NA-1 0.375 mg/kg (n = 8), Day 7)?
The value was 0.

And the “Number of Subjects” value (NA-1 0.375 mg/kg (n = 8), Day 14)?
The value was 0.

And the “Number of Subjects” value (NA-1 0.375 mg/kg (n = 8), Day 28 End-of-study)?
Its value is 0.

What about the “Number of Subjects” value (NA-1 0.375 mg/kg (n = 8), Screening) of the same sequence?
Its value is 1.

What about the “Number of Subjects” value (NA-1 0.75 mg/kg (n = 8), Day 1, 0.00 hr) of the same sequence?
The value was 0.

And the “Number of Subjects” value (NA-1 0.75 mg/kg (n = 8), Day 1, 0.08 hr)?
The value was 0.
